Laboratory results published in US4084951A, “Silicon compounds containing nucleofugal phosphate group and method of regulating plant growth therewith” (priority 1971, dated 1978).

Assays:
[1] = Half lives of various silanes in 0.1M aqueous phosphate buffers at pH 7 and 25°; assay type: physicochemical; conditions: 0.1M aqueous phosphate buffer, pH 7, 25°
Protocol: Half lives of various silanes in 0.1M aqueous
phosphate buffers at pH 7 and 25°.

[2] = system: Hevea brasiliensis trees (Clone Tjirandji 1); assay: Yield of dried rubber from trees treated on scraped bark below the tapping cut; assay type: in vivo; conditions: 20% w/w in palm oil, alternate-day half-spiral tapping, mean over two weeks
Protocol: A solution of 20% w/w of diphenyl 2-(trimethylsilyl)ethylphosphate in palm oil was applied to 11/2 inch wide strip of scraped bark just below the tapping cut of Hevea brasiliensis trees (Clone Tjirandji 1). The trees were tapped on alternate days using a half-spiral tapping cut. The yield of dried rubber obtained over a four-week period was measured. The mean yields over two weeks, expressed as grams of dry rubber per tree per tapping was 45.5 (194% of control).

[3] = system: Hevea brasiliensis seedlings; assay: Average rubber yield of seedlings treated with silane, neat liquid or 12% solution in petroleum jelly; assay type: in vivo
Protocol: Three Hevea brasiliensis seedlings were treated with 2-chloroethyltrimethoxysilane (2 μ1) applied as a neat liquid. Three similar seedlings were treated with the same weight of compound applied as a 12% solution in petroleum jelly. The following average yields of rubber were obtained (yield in mg of dry rubber, expressed as a percentage of pretreatment yields in parentheses).

[4] = 12% solution in petroleum jelly, 3 days after treatment
[5] = 12% solution in petroleum jelly, 7 days after treatment
[6] = 12% solution in petroleum jelly, 12 days after treatment
[7] = 12% solution in petroleum jelly, 16 days after treatment
[8] = 12% solution in petroleum jelly, 24 days after treatment
[9] = 12% solution in petroleum jelly, 30 days after treatment
[10] = 12% solution in petroleum jelly, 34 days after treatment
[11] = 12% solution in petroleum jelly, 42 days after treatment
[12] = neat liquid (2 μl), 3 days after treatment
[13] = neat liquid (2 μl), 7 days after treatment
[14] = neat liquid (2 μl), 12 days after treatment
[15] = neat liquid (2 μl), 16 days after treatment
[16] = neat liquid (2 μl), 24 days after treatment
[17] = neat liquid (2 μl), 30 days after treatment
[18] = neat liquid (2 μl), 34 days after treatment
[19] = neat liquid (2 μl), 42 days after treatment

CC[S+](C)CC[Si](OC)(OC)OC.[I-] (centres unmarked) [ethyl methyl 2-(trimethoxysilyl)-ethyl sulphonium iodide] gave a half-life [1] of 14 h.

In the case of C[Si](C)(C)CCOP(=O)(Oc1ccccc1)Oc1ccccc1 [diphenyl 2-(trimethylsilyl)-ethyl phosphate], the “mean yield of dry rubber per tree per tapping” value [2] is reported as 45.5 grams of dry rubber per tree per tapping and the “mean yield relative to control” value [2] is reported as 194 % of control.

CC(C)O[Si](CCCl)(OC(C)C)OC(C)C [2-chloroethyltriisopropoxysilane] showed a half-life [1] of 504 h.

In the case of CO[Si](CCCl)(OC)OC [2-chloroethyltrimethoxysilane], the half-life [1] is reported as 0.333 h, the “average yield of dry rubber” value [3, 4] is reported as 2.2 mg and the “yield as a percentage of pretreatment yields” value (from here on “yield as a percentage”) [3, 4] is reported as 160%. For the same compound, the “average yield of dry rubber” value [3, 5] was 2.3 mg, the “yield as a percentage” value [3, 5] was 164% and the “average yield of dry rubber” value [3, 6] was 2.3 mg. For the same compound, the “yield as a percentage” value [3, 6] was 164%, the “average yield of dry rubber” value [3, 7] was 3.0 mg and the “yield as a percentage” value [3, 7] was 215%. The “average yield of dry rubber” value [3, 8] was 2.2 mg, the “yield as a percentage” value [3, 8] was 160% and the “average yield of dry rubber” value [3, 9] was 2.3 mg. For the same compound, the “yield as a percentage” value [3, 9] was 164%, the “average yield of dry rubber” value [3, 10] was 1.8 mg and the “yield as a percentage” value [3, 10] was 128%. For the same compound, the “average yield of dry rubber” value [3, 11] was 0.9 mg, the “yield as a percentage” value [3, 11] was 65% and the “average yield of dry rubber” value [3, 12] was 2.1 mg. For the same compound, the “yield as a percentage” value [3, 12] was 230%, the “average yield of dry rubber” value [3, 13] was 2.2 mg and the “yield as a percentage” value [3, 13] was 245%. For the same compound, the “average yield of dry rubber” value [3, 14] was 1.3 mg, the “yield as a percentage” value [3, 14] was 145% and the “average yield of dry rubber” value [3, 15] was 1.1 mg. The “yield as a percentage” value [3, 15] was 122%, the “average yield of dry rubber” value [3, 16] was 0.9 mg and the “yield as a percentage” value [3, 16] was 100%. The “average yield of dry rubber” value [3, 17] was 0.8 mg, the “yield as a percentage” value [3, 17] was 90% and the “average yield of dry rubber” value [3, 18] was 1.2 mg. For the same compound, the “yield as a percentage” value [3, 18] was 134%, the “average yield of dry rubber” value [3, 19] was 1.0 mg and the “yield as a percentage” value [3, 19] was 112%.

In the case of C[Si](C)(C)CCCl [2-chloroethyltrimethylsilane], the half-life [1] is reported as less than 0.0167 h.
